Assay results reported in US20240360179A1, “STAPLED PEPTIDES AND METHODS THEREOF” (FOG PHARMACEUTICALS, INC., priority 2021, published 2024).
Read-outs that look alike come from different tables or passages of the source.

System: COLO320DM cells
Experiment: COLO320DM proliferation assay (CellTiter-Glo)
Assay type: cell-based, human
Protocol: COLO320DM proliferation assay IC50: In some embodiments, inhibition of cell proliferation by provided technologies were assessed using cell lines related to or from certain conditions, disorders or diseases. In some embodiments, cell proliferation was assessed in COLO320DM cells. In some embodiments, assessment was performed using the following procedure: On Day 1, cultured COLO320DM cells in a T75 flask were trypsinized in 3 mL of 0.250% trypsin/EDTA for 5 min and quenched with 10 mL RPMI-1640+4% HI FBS assay media. The cells were spun down at 1200 rpm for 5 min, the cell pellet collected and re-suspended at 5000 cells/mL in assay media. Using a Combi liquid handler, cells were dispensed (50 uL, 250 cells/well) into three 384 well plates. Plates were incubated at 37° C., 5% CO2 for 18-22 h. On day 2, compounds were added. A liquid handling system was used to prepare the compound dilution and dispense compound into assay plates. The compounds were serially diluted 1/2 in 90% DMSO to create a 7 point dose curve. From compound plate, 100 nL of compound were dispensed directly into wells of the assay plates to create a dose curve starting at 20 uM and ending at 313 nM. Assay plates were incubated at 37° C., 5% CO2 for 96 h. On day 6, assay plates were removed from the incubator and allowed to sit at room temperature for 30 min. Using a liquid handler, 20 uL of CellTiter Glo reagent was added to each well. The assay plates were shaken for 2 min and allowed to sit on the bench for 10-15 minutes. The assay plates were read using the CellTiter Glo protocol on a GloMax microplate reader, and the data analyzed using GraphPad Prism. Activities of various agents, including various stapled peptides in Table E2, were confirmed.
In some embodiments, an assessment was performed as follows. On day 0, cells were seeded in cell culture media (RPMI1640, 4% FBS) in a 96-well plate at desired density, typically at 1000 cells/well. On day 1, 10 mM agent stock solution (in DMSO) was first serially diluted into DMSO at 1:2 ratio, followed by diluting with cell culture media at two times of the final concentrations. Finally, agent-containing media were introduced to cell culture wells already having the same volume of cell culture media. Cells were incubated with agents for desired days before lysed for CellTiter-Glo® Luminescent Cell Viability Assay according to the manufacture instruction (Promega, G7570). Luminescent signal was obtained from a microplate reader (GloMax, Promega). Cell viability data was expressed as % relative to DMSO control wells.
Proliferation Assay. In some embodiments, various proliferation assays are utilized to characterize or assess provided technologies. In some embodiments, on day 0, cells were seeded in cell culture media in a 96-well plate at desired density, typically at 1000 cells/well. On day 1, 10 mM compound stock solution was first serially diluted into DMSO, followed by diluting with cell culture media at two times of the final concentrations. Finally, compound-containing media were introduced to cell culture wells already having the same volume of cell culture media. Cells were incubated with compounds for desired days before lysed for CTG according to the manufacture instruction (G7570, Promega). Luminescent signal was obtained from a microplate reader (GloMax, Promega).

[1] = absolute IC50, read-out: COLO320DM Proliferation Abs IC50
[2] = read-out: COLO320DM Proliferation Abs IC50

Row | Molecule | IC50 [1] [µM] | IC50 [2] [µM]
1 | CC(=O)N1CCC[C@]12CC=CCCCC1(CCCC=CCCCOC(=O)N3CC[C@@]4(C3)NC(=O)[C@H](CCCCNC(=O)CC[C@@H](C(=O)N[C@@H](C)C(N)=O)NC(=O)[C@H](Cc3csc5ccccc35)NC(=O)[C@H](Cc3ccsc3)NC4=O)NC(=O)[C@H](Cc3ccccc3)NC(=O)[C@H](C)NC(=O)[C@H](Cc3ccccc3)NC(=O)[C@H](Cc3cccc(C(=O)O)c3)NC(=O)[C@H](CC(=O)O)NC1=O)NC(=O)[C@H](CC(C)(C)C)NC(=O)[C@H](CC(=O)O)NC2=O (relative stereo) [I-386, Ac-PL3-Asp-Npg-B5-Asp-3COOHF-Phe-Ala-Phe-Lys*3-PyrS2-3Thi-BztA-GlnR*3-Ala-NH2] | > 20 | 
2 | CC(=O)N1CCC[C@]12CC=CCCCC1(CCCC=CCCCOC(=O)N3CC[C@@]4(C3)NC(=O)[C@H](CCCCNC(=O)CC[C@@H](C(=O)N[C@@H](C)C(N)=O)NC(=O)[C@H](Cc3csc5ccccc35)NC(=O)[C@H](Cc3ccsc3)NC4=O)NC(=O)[C@H](Cc3ccccc3)NC(=O)[C@H](C)NC(=O)C(C)(C)NC(=O)[C@H](Cc3cccc(C(=O)O)c3)NC(=O)[C@H](CC(=O)O)NC1=O)NC(=O)[C@H](CCCN1CCOCC1)NC(=O)[C@H](CC(=O)O)NC2=O (relative stereo) [I-313, Ac-PL3-Asp-MorphNva-B5-Asp-3COOHF-Aib-Ala-Phe-Lys*3-PyrS2-3Thi-BztA-GlnR*3-Ala-NH2] | > 20 | 
3 | Ac-PL3-Asp-Ile-B5-Asp-3COOHF-Aib-Ala-Phe-TriAzLys*3-PyrS2-Phe-34ClF-sCH2S*3-NH2 [I-1858] |  | ≤ 10
4 | Ac-PL3-Asp-Npg-B5-Asp-3COOHF-Aib-Ala-Phe-Lys*3-PyrS2-3Thi-BztA-GlnR*3-Pro-NH2 [I-719] |  | ≤ 10
5 | Ac-PL3-Asp-Npg-B5-Asp-3COOHF-Aib-Ala-Phe-Lys*3-PyrS2-3Thi-BztA-GlnR*3-Ala-Arg-Ala-Ala-Ala-Arg-Ala-NH2 [I-1156] |  | ≤ 10
6 | Ac-PL3-Asp-Ile-B5-Asp-3COOHF-Phe-Ala-Phe-Lys*3-PyrS2-Phe-34MeF-GlnR*3-NH2 [I-1107] |  | ≤ 10
7 | Ac-PL3-Asp-Npg-B5-Asp-3COOHF-Aib-Ala-Phe-Lys*3-PyrS2-3Thi-BztA-GlnR*3-dPro-NH2 [I-720] |  | ≤ 10
8 | CC(=O)N1CCC[C@]12CC=CCCCC1(CCCC=CCCCOC(=O)N3CC[C@@]4(C3)NC(=O)[C@H](CCCCNC(=O)CC[C@@H](C(=O)N[C@@H](C)C(N)=O)NC(=O)[C@H](Cc3csc5ccccc35)NC(=O)[C@H](Cc3ccccn3)NC4=O)NC(=O)[C@H](Cc3ccccc3)NC(=O)[C@H](C)NC(=O)C(C)(C)NC(=O)[C@H](Cc3cccc(C(=O)O)c3)NC(=O)[C@H](CC(=O)O)NC1=O)NC(=O)[C@H](CC(C)(C)C)NC(=O)[C@H](CC(=O)O)NC2=O (relative stereo) [I-299, Ac-PL3-Asp-Npg-B5-Asp-3COOHF-Aib-Ala-Phe-Lys*3-PyrS2-2PyrA-BztA-GlnR*3-Ala-NH2] |  | 10 to 20
9 | Ac-PL3-Asp-DipA-B5-Asp-3COOHF-CyLeu-Ala-Phe-Lys*3-PyrS2-2F3MeF-BztA-GlnR*3-Phe-NH2 [I-1777] |  | ≤ 10
10 | Ac-PL3-Asp-Ile-B5-Asp-3COOHF-Aib-Ala-Phe-sCH2S*3-PyrS2-Phe-34ClF-TriAzLys*3-NH2 [I-1859] |  | ≤ 10
11 | Ac-PL3-Asp-Npg-B5-Asp-3COOHF-Aib-Ala-Phe-Lys*3-PyrS2-hCha-34ClF-GlnR*3-Val-Glu-Ala-NH2 [I-1350] |  | ≤ 10
12 | Ac-PL3-Asp-DipA-B5-Asp-3COOHF-Val-Ala-Phe-Lys*3-PyrS2-3Thi-BztA-GlnR*3-Ala-NH2 [I-984] |  | ≤ 10
13 | Ac-PL3-Asp-DipA-B5-aThr-3COOHF-nLeu-Ala-Phe-Lys*3-PyrS2-3Thi-34ClF-GlnR*3-NH2 [I-1639] |  | ≤ 10
14 | Ac-PL3-Asp-Npg-B5-Asp-3COOHF-Aib-Ala-Phe-Lys*3-PyrS2-3Thi-BztA-GlnR*3-Ala-Val-Pro-Ala-Leu-Arg-NH2 [I-816] |  | ≤ 10
15 | Ac-PL3-Asp-Npg-B5-Asp-3COOHF-Aib-Ala-Phe-Lys*3-PyrS2-3Thi-BztA-GlnR*3-Ala-Ala-Lys-Leu-Pro-Val-nLeu-NH2 [I-815] |  | ≤ 10
16 | Ac-PL3-Asp-Npg-B5-Asp-3COOHF-Aib-Ala-Phe-Lys*3-PyrS2-3Thi-BztA-GlnR*3-Ala-Lys-Leu-Pro-Val-nLeu-NH2 [I-814] |  | ≤ 10
17 | Ac-PL3-Asp-Npg-B5-Asp-3COOHF-Aib-Ala-Phe-Lys*3-PyrS2-[2PyzCO]2NH2F-BztA-GlnR*3-Ala-NH2 [I-1755] |  | > 20
18 | Ac-PL3-Asp-Ile-B5-Asp-3COOHF-Phe-Ala-Phe-Lys*3-PyrS2-3Thi-34MeF-GlnR*3-NH2 [I-1102] |  | ≤ 10
19 | Ac-PL3-Asp-Npg-B5-Asp-3COOHF-Aib-Ala-Phe-Lys*3-PyrS2-3Thi-34ClF-GlnR*3-Ser-NH2 [I-869] |  | ≤ 10

Row | Molecule | IC50 [1] [µM] | IC50 [2] [µM]
20 | Ac-PL3-Asp-Npg-B5-3COOHF-Asp-Aib-Ala-Phe-Lys*3-PyrS2-3Thi-BztA-GlnR*3-Ala-NH2 [I-742] |  | > 20
21 | Ac-PL3-Asp-Npg-B5-Asp-3COOHF-Aib-Ala-Phe-Lys*3-PyrS2-hCypA-BztA-GlnR*3-Val-Glu-Ala-NH2 [I-1346] |  | ≤ 10
22 | CC(=O)N1CCC[C@]12CC=CCCCC1(CCCC=CCCCOC(=O)N3CC[C@@]4(C3)NC(=O)[C@H](CCCCNC(=O)CC[C@@H](C(=O)N[C@@H](C)C(N)=O)NC(=O)[C@H](Cc3csc5ccccc35)NC(=O)[C@H](Cc3ccsc3)NC4=O)NC(=O)[C@H](Cc3ccccc3)NC(=O)[C@H](C)NC(=O)C(C)(C)NC(=O)[C@H](Cc3cccc(C(=O)O)c3)NC(=O)[C@H](CC(=O)O)NC1=O)NC(=O)[C@H](C1CCCCC1)NC(=O)[C@H](CC(=O)O)NC2=O (single isomer, unassigned) [I-253, Ac-PL3-Asp-Chg-B5-Asp-3COOHF-Aib-Ala-Phe-Lys*3-PyrS2-3Thi-BztA-GlnR*3-Ala-NH2] |  | ≤ 10
23 | Ac-PL3-Asp-Npg-B5-Asp-3COOHF-Aib-Ala-Phe-Lys*3-PyrS2-hCha-BztA-GlnR*3-Val-Glu-Ala-NH2 [I-1347] |  | > 20
24 | Ac-PL3-Asp-DipA-B5-Asp-3COOHF-CyLeu-Ala-Phe-Lys*3-PyrS2-2F3MeF-34ClF-GlnR*3-Leu-NH2 [I-1769] |  | ≤ 10
25 | Ac-PL3-Asp-DipA-B5-Asp-3COOHF-Ala-Ala-Phe-Lys*3-PyrS2-3Thi-34ClF-GlnR*3-Ala-Ala-[Oct-dPEG2]-Lys-NH2-NH2 [I-1789] |  | ≤ 10
26 | Ac-PL3-Asp-Ile-B5-Asp-3COOHF-CyLeu-Ala-Phe-Lys*3-PyrS2-3Thi-34ClF-GlnR*3-Val-Thr-Ala-NH2 [I-1268] |  | ≤ 10
27 | Ac-PL3-Asp-DipA-B5-Asp-3COOHF-Ala-Ala-Phe-Lys*3-PyrS2-3Thi-34ClF-GlnR*3-Ala-Ala-Ala-[mPEG37]-Lys [I-1706] |  | ≤ 10
28 | Ac-PL3-Asp-DipA-B5-Asp-3COOHF-Val-Ala-Phe-Lys*3-PyrS2-Phe-BztA-GlnR*3-dPro-NH2 [I-1855] |  | ≤ 10
29 | Ac-PL3-Asp-Ile-B5-Asp-3COOHF-Phe-Ala-Phe-Lys*3-PyrS2-Phe-34MeF-GlnR*3-Ala-NH2 [I-1106] |  | ≤ 10
30 | Ac-PL3-Asp-DipA-B5-Asp-3COOHF-CyLeu-Ala-Phe-Lys*3-PyrS2-2F3MeF-BztA-GlnR*3-Val-NH2 [I-1774] |  | ≤ 10
31 | Ac-PL3-Asp-Npg-B5-Asp-3COOHF-Aib-Ala-Phe-Lys*3-PyrS2-[3PyPrpc]2NH2F-BztA-GlnR*3-Ala-NH2 [I-1742] |  | 10 to 20
32 | Ac-PL3-Asp-DipA-B5-Asp-3COOHF-Ala-Ala-Phe-Lys*3-PyrS2-3Thi-34ClF-GlnR*3-Ala-Ala-[mPEG37]-Lys-NH2 [I-1704] |  | ≤ 10
33 | Ac-PL3-Asp-DipA-B5-Asp-3COOHF-CyLeu-Ala-Phe-Lys*3-PyrS2-3Thi-34ClF-GlnR*3-Ala-NH2 [I-1118] |  | ≤ 10
34 | Ac-PL3-Asp-Npg-B5-Asp-3COOHF-Aib-Ala-Phe-Lys*3-PyrS2-3Thi-BztA-GlnR*3-Ala-Ala-Leu-NH2 [I-805] |  | ≤ 10
35 | Ac-PL3-Asp-Ile-B5-Asp-3COOHF-Aib-Ala-Phe-hGlnR*3-PyrS2-Phe-34ClF-Lys*3-NH2 [I-1372] |  | ≤ 10
36 | Ac-PL3-Asp-Chg-B5-Asp-3COOHF-CyLeu-Ala-Phe-Lys*3-PyrS2-Phe-34ClF-GlnR*3-NH2 [I-1056] |  | ≤ 10
37 | Ac-PL3-Asp-Ile-B5-Asp-3COOHF-Aib-Ala-Phe-1MeK*3-PyrS2-Phe-34ClF-hGlnR*3-NH2 [I-1373] |  | > 20
